Where two headings read alike, the source gives them in different places.
What was measured:
Test in all cases: biochemical
Design in all cases: DiscoveRx KINOMEscan active site-directed competition binding; percent of control kinase bound to immobilised ligand
[1] = target: T1, CAMK4 (Homo sapiens, UniProt Q16566)
T1 sequence (Q16566 1-473): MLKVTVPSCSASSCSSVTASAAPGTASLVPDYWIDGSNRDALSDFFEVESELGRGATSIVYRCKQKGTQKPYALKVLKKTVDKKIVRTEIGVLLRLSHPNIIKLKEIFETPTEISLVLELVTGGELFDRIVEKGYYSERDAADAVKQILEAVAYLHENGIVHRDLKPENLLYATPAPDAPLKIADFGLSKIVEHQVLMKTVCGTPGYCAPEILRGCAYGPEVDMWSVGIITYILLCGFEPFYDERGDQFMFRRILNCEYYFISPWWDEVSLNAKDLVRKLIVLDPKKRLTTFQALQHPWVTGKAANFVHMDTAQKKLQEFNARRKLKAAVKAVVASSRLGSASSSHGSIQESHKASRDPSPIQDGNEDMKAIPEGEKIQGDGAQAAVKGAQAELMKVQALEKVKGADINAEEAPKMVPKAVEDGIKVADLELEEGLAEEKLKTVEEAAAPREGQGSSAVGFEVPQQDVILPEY

[2] = target: MAP4K5 (Homo sapiens, UniProt Q9Y4K4)
MAP4K5, sequence (Q9Y4K4 whole entry): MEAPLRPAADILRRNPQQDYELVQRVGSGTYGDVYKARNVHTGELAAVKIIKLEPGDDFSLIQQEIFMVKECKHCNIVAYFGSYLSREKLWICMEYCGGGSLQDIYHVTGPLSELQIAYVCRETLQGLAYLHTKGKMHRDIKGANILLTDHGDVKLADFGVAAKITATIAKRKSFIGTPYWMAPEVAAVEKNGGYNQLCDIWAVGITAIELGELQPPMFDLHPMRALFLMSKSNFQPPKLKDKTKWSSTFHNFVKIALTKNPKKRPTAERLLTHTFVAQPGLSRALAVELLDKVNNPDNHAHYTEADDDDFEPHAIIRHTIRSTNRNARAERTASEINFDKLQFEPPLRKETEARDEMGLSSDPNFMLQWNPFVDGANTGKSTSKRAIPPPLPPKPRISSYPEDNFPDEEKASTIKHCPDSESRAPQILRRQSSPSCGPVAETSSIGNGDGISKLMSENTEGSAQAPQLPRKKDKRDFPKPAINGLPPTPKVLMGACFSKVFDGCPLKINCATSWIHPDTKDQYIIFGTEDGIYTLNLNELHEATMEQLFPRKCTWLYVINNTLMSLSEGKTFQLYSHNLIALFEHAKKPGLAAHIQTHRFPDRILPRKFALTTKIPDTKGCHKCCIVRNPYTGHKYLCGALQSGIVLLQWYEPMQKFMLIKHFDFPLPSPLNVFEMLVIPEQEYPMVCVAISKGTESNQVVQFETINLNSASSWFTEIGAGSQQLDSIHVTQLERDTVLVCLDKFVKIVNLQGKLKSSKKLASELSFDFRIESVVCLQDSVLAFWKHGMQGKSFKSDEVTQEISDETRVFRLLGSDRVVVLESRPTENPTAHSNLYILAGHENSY

[3] = target: T2, MST2 (Homo sapiens, UniProt Q13188)
T2 construct: gene STK3
T2 sequence (Q13188 1-491): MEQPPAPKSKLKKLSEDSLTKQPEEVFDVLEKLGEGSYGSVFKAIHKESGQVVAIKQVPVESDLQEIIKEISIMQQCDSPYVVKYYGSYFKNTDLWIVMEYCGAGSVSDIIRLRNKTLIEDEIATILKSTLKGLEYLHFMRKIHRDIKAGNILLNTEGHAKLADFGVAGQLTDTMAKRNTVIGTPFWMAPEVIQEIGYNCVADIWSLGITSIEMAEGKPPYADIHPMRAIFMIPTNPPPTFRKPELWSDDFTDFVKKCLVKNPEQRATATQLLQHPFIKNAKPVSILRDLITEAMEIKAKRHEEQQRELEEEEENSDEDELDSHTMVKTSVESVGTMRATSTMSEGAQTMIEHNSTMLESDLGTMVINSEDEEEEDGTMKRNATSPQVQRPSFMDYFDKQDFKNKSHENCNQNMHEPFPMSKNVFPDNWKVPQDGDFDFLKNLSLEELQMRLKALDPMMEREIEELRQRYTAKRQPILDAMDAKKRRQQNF

[4] = target: PIK3CA(C420R) (Homo sapiens, UniProt P42336, C420R)
PIK3CA(C420R), sequence (P42336 whole entry C420R): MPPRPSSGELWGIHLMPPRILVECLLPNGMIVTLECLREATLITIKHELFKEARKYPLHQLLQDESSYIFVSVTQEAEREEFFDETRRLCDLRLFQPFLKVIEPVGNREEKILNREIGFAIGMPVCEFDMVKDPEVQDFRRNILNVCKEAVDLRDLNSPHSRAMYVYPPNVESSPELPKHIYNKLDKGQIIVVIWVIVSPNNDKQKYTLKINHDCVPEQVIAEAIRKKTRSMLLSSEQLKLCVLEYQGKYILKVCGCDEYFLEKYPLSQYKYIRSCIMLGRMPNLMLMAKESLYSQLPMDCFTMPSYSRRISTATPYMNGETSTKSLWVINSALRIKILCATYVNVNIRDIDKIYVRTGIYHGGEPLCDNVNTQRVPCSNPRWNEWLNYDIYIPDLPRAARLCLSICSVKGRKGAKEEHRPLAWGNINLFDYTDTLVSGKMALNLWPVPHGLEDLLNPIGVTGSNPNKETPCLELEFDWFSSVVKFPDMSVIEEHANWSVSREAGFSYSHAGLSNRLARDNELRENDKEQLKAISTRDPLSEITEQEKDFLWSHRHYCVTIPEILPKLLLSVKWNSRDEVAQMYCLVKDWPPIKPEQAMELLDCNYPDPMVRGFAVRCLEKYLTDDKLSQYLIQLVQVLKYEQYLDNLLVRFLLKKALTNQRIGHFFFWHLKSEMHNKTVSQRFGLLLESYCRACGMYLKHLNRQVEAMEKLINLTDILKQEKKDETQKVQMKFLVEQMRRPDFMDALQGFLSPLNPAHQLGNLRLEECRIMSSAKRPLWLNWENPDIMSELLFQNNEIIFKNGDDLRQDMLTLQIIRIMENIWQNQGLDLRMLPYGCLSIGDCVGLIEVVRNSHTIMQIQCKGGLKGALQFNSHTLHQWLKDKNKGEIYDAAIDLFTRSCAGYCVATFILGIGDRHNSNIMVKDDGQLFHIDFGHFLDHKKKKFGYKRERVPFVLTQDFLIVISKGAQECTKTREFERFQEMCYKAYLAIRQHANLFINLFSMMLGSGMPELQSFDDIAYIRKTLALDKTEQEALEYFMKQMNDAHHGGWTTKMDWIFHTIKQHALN

[5] = target: PIK3CA(H1047Y) (Homo sapiens, UniProt P42336, H1047Y)
PIK3CA(H1047Y), sequence (P42336 whole entry H1047Y): as the sequence (P42336 whole entry C420R) above, with R420C, H1047Y counted along it

[6] = target: PKN2 (Homo sapiens, UniProt Q16513)
PKN2, sequence (Q16513 whole entry): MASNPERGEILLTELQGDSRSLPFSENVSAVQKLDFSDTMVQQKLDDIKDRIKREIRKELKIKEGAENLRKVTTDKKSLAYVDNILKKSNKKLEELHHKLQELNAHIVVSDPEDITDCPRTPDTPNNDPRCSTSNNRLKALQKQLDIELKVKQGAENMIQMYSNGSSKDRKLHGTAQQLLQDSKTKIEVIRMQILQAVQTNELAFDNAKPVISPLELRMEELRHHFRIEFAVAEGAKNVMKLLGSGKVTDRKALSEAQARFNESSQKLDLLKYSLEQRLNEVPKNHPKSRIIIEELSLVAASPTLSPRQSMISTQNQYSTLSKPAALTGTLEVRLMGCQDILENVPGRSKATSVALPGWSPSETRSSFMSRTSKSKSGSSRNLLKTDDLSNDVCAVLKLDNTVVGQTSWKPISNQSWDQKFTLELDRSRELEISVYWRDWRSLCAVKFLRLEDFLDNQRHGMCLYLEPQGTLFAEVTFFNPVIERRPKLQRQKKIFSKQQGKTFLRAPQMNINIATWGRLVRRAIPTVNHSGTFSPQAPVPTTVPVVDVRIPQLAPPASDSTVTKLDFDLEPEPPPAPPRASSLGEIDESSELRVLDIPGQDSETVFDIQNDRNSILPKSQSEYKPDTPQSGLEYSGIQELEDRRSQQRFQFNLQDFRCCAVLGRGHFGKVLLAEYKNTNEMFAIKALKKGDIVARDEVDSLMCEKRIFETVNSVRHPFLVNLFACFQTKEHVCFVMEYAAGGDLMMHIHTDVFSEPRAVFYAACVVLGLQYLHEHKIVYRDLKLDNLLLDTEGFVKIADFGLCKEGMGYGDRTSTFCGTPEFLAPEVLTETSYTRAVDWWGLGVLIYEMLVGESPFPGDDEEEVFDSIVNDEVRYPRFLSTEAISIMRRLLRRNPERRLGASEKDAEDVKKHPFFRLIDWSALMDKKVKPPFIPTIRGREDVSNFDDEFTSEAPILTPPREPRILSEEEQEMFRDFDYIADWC

[7] = target: T3, ULK1 (Homo sapiens, UniProt O75385)
T3 sequence (O75385 1-1050): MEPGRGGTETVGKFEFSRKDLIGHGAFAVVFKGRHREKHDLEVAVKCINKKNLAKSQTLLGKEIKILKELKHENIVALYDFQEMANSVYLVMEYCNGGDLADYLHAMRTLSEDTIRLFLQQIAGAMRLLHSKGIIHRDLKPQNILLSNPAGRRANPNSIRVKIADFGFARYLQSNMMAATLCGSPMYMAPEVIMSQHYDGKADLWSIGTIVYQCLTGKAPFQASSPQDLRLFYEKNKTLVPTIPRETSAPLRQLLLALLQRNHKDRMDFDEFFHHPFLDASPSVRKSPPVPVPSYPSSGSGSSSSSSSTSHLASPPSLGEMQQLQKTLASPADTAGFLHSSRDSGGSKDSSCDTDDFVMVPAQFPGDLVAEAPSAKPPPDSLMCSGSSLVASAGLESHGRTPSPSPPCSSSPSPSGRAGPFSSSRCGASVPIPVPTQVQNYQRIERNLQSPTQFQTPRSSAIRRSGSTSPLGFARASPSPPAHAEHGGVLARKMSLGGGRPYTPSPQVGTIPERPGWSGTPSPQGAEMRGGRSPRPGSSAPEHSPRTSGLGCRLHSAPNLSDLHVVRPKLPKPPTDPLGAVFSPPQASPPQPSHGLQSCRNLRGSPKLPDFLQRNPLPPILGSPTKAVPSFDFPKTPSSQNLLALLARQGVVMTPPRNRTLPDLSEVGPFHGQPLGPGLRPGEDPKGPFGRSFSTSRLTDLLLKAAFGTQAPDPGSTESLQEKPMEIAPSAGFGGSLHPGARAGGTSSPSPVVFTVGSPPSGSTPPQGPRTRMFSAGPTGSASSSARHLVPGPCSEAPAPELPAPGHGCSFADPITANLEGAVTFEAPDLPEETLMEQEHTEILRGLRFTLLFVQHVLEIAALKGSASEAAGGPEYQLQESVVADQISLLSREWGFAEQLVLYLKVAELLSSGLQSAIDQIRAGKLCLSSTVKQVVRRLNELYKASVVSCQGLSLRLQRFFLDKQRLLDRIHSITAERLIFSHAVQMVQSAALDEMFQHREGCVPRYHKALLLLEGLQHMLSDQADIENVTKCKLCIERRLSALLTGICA

[8] = target: WEE1 (Homo sapiens, UniProt P30291)
WEE1, sequence (P30291 whole entry): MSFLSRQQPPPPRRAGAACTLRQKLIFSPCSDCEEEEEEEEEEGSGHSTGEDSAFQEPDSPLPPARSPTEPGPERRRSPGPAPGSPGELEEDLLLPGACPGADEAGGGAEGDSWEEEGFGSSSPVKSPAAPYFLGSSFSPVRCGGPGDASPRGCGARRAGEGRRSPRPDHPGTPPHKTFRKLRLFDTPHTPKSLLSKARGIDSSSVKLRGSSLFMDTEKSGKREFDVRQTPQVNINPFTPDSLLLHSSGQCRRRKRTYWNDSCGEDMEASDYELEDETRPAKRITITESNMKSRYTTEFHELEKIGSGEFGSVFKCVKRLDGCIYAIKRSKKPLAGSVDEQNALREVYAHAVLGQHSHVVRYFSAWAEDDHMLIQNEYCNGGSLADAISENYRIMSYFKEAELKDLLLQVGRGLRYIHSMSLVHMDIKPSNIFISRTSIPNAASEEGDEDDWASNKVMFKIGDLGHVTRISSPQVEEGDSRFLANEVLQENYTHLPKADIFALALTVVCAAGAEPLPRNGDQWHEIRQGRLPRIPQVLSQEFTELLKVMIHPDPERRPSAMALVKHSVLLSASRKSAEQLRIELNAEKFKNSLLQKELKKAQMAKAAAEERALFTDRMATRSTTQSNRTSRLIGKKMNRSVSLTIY

[9] = read-out: Talazoparib (BMN 673) / %Ctrl @ 10000nM
[10] = read-out: Olaparib / %Ctrl @ 10000nM
[11] = read-out: Rucaparib / %Ctrl @ 10000nM, binding competition, % of control
[12] = read-out: Niraparib (MK-4827) / %Ctrl @ 10000nM

Q: What does the source list for `Cn1ncnc1[C@H]1c2n[nH]c(=O)c3cc(F)cc(c23)N[C@@H]1c1ccc(F)cc1` [Talazoparib]?
A: percent of control binding at 10 µM [1, 9]: 83%; percent of control binding at 10 µM [2, 9]: 100%; percent of control binding at 10 µM [3, 9]: 100%; percent of control binding at 10 µM [4, 9]: 100%; percent of control binding at 10 µM [5, 9]: 89%; percent of control binding at 10 µM [6, 9]: 85%; percent of control binding at 10 µM [7, 9]: 94%; percent of control binding at 10 µM [8, 9]: 100%

Q: For `O=C(c1cc(Cc2n[nH]c(=O)c3ccccc23)ccc1F)N1CCN(C(=O)C2CC2)CC1` [Olaparib], which percent of control binding at 10 µM [1, 10] is on record?
A: Its percent of control binding at 10 µM is 93%.

Q: What about the percent of control binding at 10 µM [2, 10] of the same molecule?
A: Its percent of control binding at 10 µM is 96%.

Q: What about the percent of control binding at 10 µM [3, 10] of the same molecule?
A: Its percent of control binding at 10 µM is 96%.

Q: And the percent of control binding at 10 µM [5, 10]?
A: The percent of control binding at 10 µM was 100%.

Q: What about the percent of control binding at 10 µM [6, 10] of the same molecule?
A: The percent of control binding at 10 µM was 100%.

Q: What about the percent of control binding at 10 µM [7, 10] of the same molecule?
A: Its percent of control binding at 10 µM is 83%.

Q: What about the percent of control binding at 10 µM [8, 10] of the same molecule?
A: Its percent of control binding at 10 µM is 100%.

Q: Which results are given for `CNCc1ccc(-c2[nH]c3cc(F)cc4c3c2CCNC4=O)cc1` [Rucaparib]?
A: percent of control binding at 10 µM [1, 11]: 94%; percent of control binding at 10 µM [2, 11]: 98%; percent of control binding at 10 µM [3, 11]: 76%; percent of control binding at 10 µM [4, 11]: 74%; percent of control binding at 10 µM [5, 11]: 75%; percent of control binding at 10 µM [6, 11]: 99%; percent of control binding at 10 µM [7, 11]: 64%; percent of control binding at 10 µM [8, 11]: 92%

Q: Which percent of control binding at 10 µM [1, 12] does the source give for `NC(=O)c1cccc2cn(-c3ccc([C@@H]4CCCNC4)cc3)nc12` [Niraparib] here?
A: Its percent of control binding at 10 µM is 100%.

Q: And the percent of control binding at 10 µM [2, 12]?
A: The percent of control binding at 10 µM was 100%.

Q: What about the percent of control binding at 10 µM [3, 12] of the same molecule?
A: The percent of control binding at 10 µM was 100%.

Q: What about the percent of control binding at 10 µM [4, 12] of the same molecule?
A: The percent of control binding at 10 µM was 98%.

Q: What about the percent of control binding at 10 µM [5, 12] of the same molecule?
A: Its percent of control binding at 10 µM is 66%.

Q: What about the percent of control binding at 10 µM [6, 12] of the same molecule?
A: Its percent of control binding at 10 µM is 95%.

Q: And the percent of control binding at 10 µM [7, 12]?
A: The percent of control binding at 10 µM was 100%.

Q: And the percent of control binding at 10 µM [8, 12]?
A: The percent of control binding at 10 µM was 100%.

From PMC7026418, “The kinase polypharmacology landscape of clinical PARP inhibitors” (Scientific Reports, 2020)
